Columns and labels:
Format in all cases: cell-based
[1] = tested on: Bacillus cerreus ATCC 14579; test: MIC, serial broth microdilution, B. cerreus; conditions: 24 h, 37 °C
Protocol: The values of MIC, defined as the lowest concentration of antimicrobial complex that prevents visible growth of germs, are presented in Table S4 in the Supplementary Material. To quantify the copper complexes effectiveness as antibacterial agents, their minimum inhibitory concentrations (MICs) were determined using the serial broth microdilution method described by Quinn et al. and Markey et al.. The method was adapted for the purposes of the current study, according to the standards developed by the Clinical and Laboratory Standards Institute. The tests were performed on the same Gram-positive and Gram-negative reference microbial strains. Ten successive dilutions of the copper complexes solutions (1/2 to 1/1024) in nutrient broth (Merck KGaA, Darmstadt, Germany) were performed and then were placed in sterile microplates (one each for every copper complex). The microplates were incubated at 37 ± 2 °C for 24 h. Comparisons of the amount of bacterial growth in each well containing copper complexes solutions with the amount of growth in the growth control wells were performed and the maximal dilution for which the tested copper complexes inhibited bacterial growth was determined.

[2] = tested on: Escherichia coli ATCC 10536; test: Disk diffusion method, E. coli; conditions: complexes 5 µL of 1 mg/mL; 25 µg Amoxicillin, 5 µg Norfloxacin; 24 h, 37 °C
From the text: (§1) The disk diffusion method was used to determine the antibacterial activity of the C1 and C2 copper complexes on four reference microbial strains, two Gram-positive (Staphylococcus aureus and Bacillus cerreus) and two Gram-negative (Escherichia coli and Pseudomonas aeruginosa) strains. The disk diffusion method was used to determine the antibacterial activity of the C1 and C2 copper complexes. The method was adapted for the purposes of the current study, according to the standards developed by the Clinical and Laboratory Standards Institute. Four reference microbial strains, two Gram-positive (Staphylococcus aureus ATCC […] and Bacillus cerreus ATCC 14579) and two Gram-negative (Escherichia coli ATCC 10536 and Pseudomonas aeruginosa ATCC 27853) strains, were used for in vitro susceptibility testing. These reference microbial strains were obtained from the American Type Culture Collection (ATCC, Manassas, VA, USA). As positive controls, Amoxicillin (Oxoid Ltd., Basingstoke, UK) and Norfloxacin (Sigma-Aldrich) were used. For each of the four species, an initial suspension of bacterial cultures was inoculated on nutrient agar plates (Merck KGaA, Darmstadt, Germany), incubated for 24 h at 37 ± 2 °C and resuspended in a physiological saline buffer to a […] concentration (on a 0.5 McFarland scale), and further inoculated on Muëller Hinton agar plates (Merck KGaA, Darmstadt, Germany). […] After inoculation, the medium surface was dried and 8 wells were radially drilled 1.5 cm from the outer edge, 3 cm apart. From aliquot samples of 1 mg/mL of each copper complex dissolved in DMSO and incorporated in sterile liquid medium, 5 μL was placed in each of the 8 wells and left for 30 min to diffuse into the agar plates. The plates were then incubated for 24 h at 37 ± 2 °C. Then, 25 μg Amoxicillin and 5 μg Norfloxacin served as a positive controls, while DMSO 0.75% was used as a negative control. Readings were conducted by measuring the diameter of the inhibition zone (Halo Zone Test, in mm). The germ sensitivity of the copper complexes was estimated by comparing the diameter of the inhibition area to that generated by the regular antibiotics with known inhibition values. […] All tests were triplicated, and the measured diameters of the inhibition zone were expressed (in mm) as mean ± standard deviation.

[3] = tested on: normal fibroblastic epithelial cell line (HFL1); test: MTT cytotoxicity assay, HFL1; conditions: HFL1 cells
Protocol: Three cell lines were used to determine the cytotoxicity of the complexes, a human cervical carcinoma line (HeLa), a human radical growth phase melanoma cell line (WM35), and a normal fibroblastic epithelial cell line (HFL1) using the MTT method. The cells were exposed to C1 and C2 complexes in different concentrations (50, 25, 12.5, 2, and 0.2 µM) at 24, 48, and 72 h. As positive contro, cisplatin was used.
To determine the cytotoxicity of the copper complexes, three cell lines were used: a human cervical carcinoma line (HeLa), a human radical growth phase melanoma cell line (WM35), and a normal fibroblastic epithelial cell line (HFL1). The cell lines were obtained from ATCC (American Type Cell Collection, Manassas, VA 20110-2209, USA) and were maintained in DMEM (Sigma-Aldrich, Saint Louis, Missouri, USA) supplemented with 10% fetal bovine serum (Hyclone), 1 mM glutamine (Sigma-Aldrich), and 1% antibiotic antimycotic 100× (Sigma-Aldrich). The cells were cultured at 37 °C in an atmosphere of 5% CO2 and 95% relative humidity.
The cytotoxicity assays were performed using the MTT assay (3-(4,5-dimethylthiazol-2-yl)-2,5-diphenyl tetrazolium bromide-Sigma Aldrich). Cells were plated at a density of 1 × 10^5 cells/well in 96-well plates for 24 h in normal propagation media. The cultures were then exposed to C1 and C2 complexes in different concentrations (50, 25, 12.5, 2, and 0.2 µM). The complexes were first solubilized in DMSO (Sigma) and then serial dilutions in media were performed until the final concentration of DMSO was less than 1%. As a positive control, cisplatin (Ebewe Pharma Ges.m.b.H. Nfg. KG, Austria) was used, in the same concentrations as the complexes. As a negative control, cell lines cultivated in normal expansion medium with the same amount of DMSO added were used. The cellular viability was determined using the MTT assay at 24, 48, and 72 h, respectively. Formazan particles were solubilized with DMSO and absorbances were determined at 550 nm using a microplate reader (Bio-Rad, Hercules, CA, USA). The cytotoxic activity, expressed as IC50 values representing the complex solution required to inhibit 50% of the cell proliferation, were calculated from the calibration curve by nonlinear regression. Each experiment was carried out in triplicate.

[4] = tested on: Pseudomonas aeruginosa ATCC 27853; test: Disk diffusion method, P. aeruginosa; conditions: complexes 5 µL of 1 mg/mL; 5 µg Norfloxacin; 24 h, 37 °C
From the text: as §1

| Substance | MIC [1] | Halo Zone Test (diameter of the inhibition zone) [2] | IC50 ([3]; 24 h) | IC50 ([3]; 48 h) | IC50 ([3]; 72 h) | Halo Zone Test (diameter of the inhibition zone) [4] |
| --- | --- | --- | --- | --- | --- | --- |
| [Cu(N-(5-(4-Methylphenyl)-[1,3,4]-Thiadiazole-2-yl) Naphtalenesulfonamidate)2(H2O)3] [C1] | 0.304 µg/mL | 14 ± 0.11 mm | 44.7 ± 0.51 µM | 7.38 ± 0.12 µM | 3.75 ± 0.15 µM | 15 ± 0.32 mm |
| [Cu(N-(5-Ethyl--[1,3,4]-Thiadiazole-2-yl) Naphtalenesulfonamidate)2(py)2(H2O)] [C2] | 0.293 µg/mL | 16 ± 0.21 mm | 18 ± 1.08 µM | 5.55 ± 0.22 µM | 2.03 ± 0.04 µM | 19 ± 0.19 mm |
